{"source": "patent US6831106B1", "about": "“Vitamin D analogues” (Galderma Research & Development, S.N.C., priority 1999, dated 2004)"}
{"molecular_target": "T1, human VDR receptor (Homo sapiens, UniProt P11473)", "T1 construct": "expressed in transfected cells; host or cells: HeLa", "T1 sequence (P11473 1-427)": "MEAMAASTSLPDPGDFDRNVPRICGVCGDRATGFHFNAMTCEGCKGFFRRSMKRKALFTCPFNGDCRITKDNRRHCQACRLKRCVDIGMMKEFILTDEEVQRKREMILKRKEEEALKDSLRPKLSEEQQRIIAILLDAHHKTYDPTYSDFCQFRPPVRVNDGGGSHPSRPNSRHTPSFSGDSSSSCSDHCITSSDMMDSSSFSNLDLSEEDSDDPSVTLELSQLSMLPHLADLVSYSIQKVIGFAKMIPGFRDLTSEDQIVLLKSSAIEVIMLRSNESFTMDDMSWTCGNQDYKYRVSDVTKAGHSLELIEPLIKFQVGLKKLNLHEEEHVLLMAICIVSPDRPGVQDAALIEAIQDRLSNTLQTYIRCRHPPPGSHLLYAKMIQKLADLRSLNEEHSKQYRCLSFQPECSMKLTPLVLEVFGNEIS", "assay": "VDR agonist activity, co-transfection of human VDR expression vector and p240Hase-CAT reporter in HeLa cells", "format": "cell-based", "conditions": "HeLa cell line, CAT reporter under rat 24-hydroxylase promoter, 18 hours treatment, ELISA; read-out: AC 50 (dose required to achieve 50% of the maximum activity of the product)", "procedure": "By way of example, the VDR agonist activity can be tested on the HeLa cell line by co-transfection with an expression vector for the human VDR receptor and the reporter plasmid p240Hase-CAT which contains the region −1399 to +76 of rat 24-hydroxylase promoter, cloned upstream of the frame encoding the chloramphenicol-acetyl-transferase (CAT)′gene. 18 hours after co-transfection, the test product is added to the medium. 18 hours after treatment, assay of the CAT activity in the cell lysates is carried out by an ELISA test. The results are expressed as percentages of the effect normally observed with 10^−7M calcitriol.\nThe agonist activity can also be characterized in this co-transfection system, by determining the dose required to reach 50% of the maximum activity of the product (AC50).\nThe VDR agonist activity was tested on the HeLa cell line, by co-transfection of an expression vector of the human VDR receptor and of the reporter plasmid p240Hase-CAT which contains the region −1399 to +76 of the rat 24-hydroxylase promoter, cloned upstream of the coding frame of the chloramphenicol-acetyl-transferase (CAT) gene. 18 hours after co-transfection, the test product is added to the medium. After treatment for 18 hours, the CAT activity of the cell lysates is assayed by an ELISA test. The results are expressed as a percentage of the effect normally observed with 10^−7 M of calcitriol.\nThe agonist activity was characterized in this co-transfection system by determining the dose required to achieve 50% of the maximum activity of the product (AC50).", "units": {"AC50": "nM"}}
{"smiles": "CCC(O)(CC)c1ccc(-c2cccc(OCc3ccc(CO)c(CO)c3)c2)c(C)c1", "note": "[Example 3, {5-4′-[(1-Ethyl-1-hydroxypropyl)-2′-methylbiphenyl-3-yloxymethyl]-2-hydroxymethylphenyl}methanol]", "AC50": 470}
{"smiles": "CCC(O)(CC)c1ccc(-c2cccc(SCc3ccc(CO)c(CO)c3)c2)c(C)c1", "note": "[Example 10, {4-[4′-(1-Ethyl-1-hydroxypropyl)-2′-methylbiphenyl-3-ylsulphanylmethyl]-2-hydroxymethylphenyl}methanol]", "AC50": 2040}
{"smiles": "CCC(O)(CC)c1ccc(-c2cccc(OCc3ccc(CO)c(CO)c3)c2C)c(C)c1", "note": "[Example 11, {4-[4′-(1-Ethyl-1-hydroxypropl)-2,2′-dimethylbiphenyl-3-yloxymethyl]-2-hydroxymethylphenyl}methanol]", "AC50": 291}
{"smiles": "CCC(O)(CC)c1ccc(-c2cc(OCc3ccc(CO)c(CO)c3)ccc2C)c(C)c1", "note": "[Example 16, {4-[4′-(1-Ethyl-1-hydroxypropyl)-6,2′-dimethylbiphenyl-3-yloxymethyl]-2-hydroxymethylphenyl}methanol]", "AC50": 46}
{"smiles": "CCC(O)(CC)c1cc(C)c(-c2cc(OCc3ccc(CO)c(CO)c3)ccc2C)c(C)c1", "note": "[Example 17, {4-[4′-(1-Ethyl-1-hydroxypropyl)-6,2′,6′-trimethylbiphenyl-3-yloxymethyl]-2-hydroxymethylphenyl}methanol]", "AC50": 194}
{"smiles": "CCC(O)(CC)c1ccc(-c2cc(OCc3ccc(CO)c(CO)c3)ccc2C)cc1", "note": "[Example 18, {4-[4′-(1-Ethyl-1-hydroxypropyl)-6-methylbiphenyl-3-yloxymethyl]-2-hydroxymethylphenyl}methanol]", "AC50": 133}
{"smiles": "CCC(O)(CC)c1ccc(-c2cccc(COc3ccc(CO)c(CO)c3)c2)c(C)c1", "note": "[Example 22, {4-[4′-(1-Ethyl-1-hydroxypropyl)-2′-methylbiphenyl-3-ylmethoxy]-2-hydroxymethylphenyl}methanol]", "AC50": 451}
{"system": "seborrhoeic scalp", "assay": "antiseboric lotion applied to a seborrhoeic scalp", "format": "in vivo", "conditions": "lotion with 0.030 g compound per 100 g, applied twice a day, within a period of 2 to 6 weeks"}
{"smiles": "CCCC(O)(CCC)c1ccc(-c2cccc(OCc3ccc(CO)c(CO)c3)c2C)c(C)c1", "note": "[Example 12, {2-Hydroxymethyl-4-[4′-(1-hydroxy-1-propylbutyl)-2,2′-dimethylbiphenyl-3-yloxymethyl]phenyl}methanol]", "improvement of seborrhoeic scalp": "significant improvement"}
